From patent US20250332096A1, “BEVERAGE FORMULATION AND METHOD OF PROMOTING CELLULAR HYDRATION BY ENHANCING INTRACELLULAR PERMEATION” (Eastpond Laboratories Limited, priority 2024, published 2025)

Experiments:
[1] = Conductivity of test solutions; type: physicochemical; conditions: purified water
Protocol: (§1) 1:1 mol/mol stoichiometry complexes were prepared for the experiment. Nicotinic acid/alpha-CD complex was prepared by dissolving 11.22 g nicotinic acid and 98.63 g alpha-CD (89.66 g on dry basis) in 700 ml purified water. Nicotinamide/alpha-CD complex was prepared by dissolving 5.57 g nicotinamide and 49.3 g alpha-CD (44.4 g on dry basis) in 350 ml purified water and L-arginine/alpha-CD complex was prepared by dissolving 15.18 g L-arginine and 94.26 g alpha-CD (85.69 g on dry basis) in 700 ml purified water. Further, for all the three complexes, the liquid was frozen in dry ice bath and lyophilized. The dry lyophilizate was ground and sieved.
(§2) Clarity, pH, conductivity, density, viscosity, turbidity, surface tension and osmolality were determined in solutions prepared with purified water. […]

[2] = Viscosity of test solutions; type: physicochemical; conditions: purified water
Protocol: as §1
Clarity, pH, conductivity, density, viscosity, turbidity, surface tension and osmolality were determined in solutions prepared with purified water.

[3] = Surface tension of test solutions; type: physicochemical; conditions: purified water
Protocol: as §1, §2

[4] = Osmolality of test solutions; type: physicochemical; conditions: purified water
Protocol: as §1, §2

[5] = test system: Wheat seeds (Triticum aestivum); experiment: Wheat seed germination; type: in vivo; conditions: 0.5% w/w in USA I water
Protocol: Wheat seeds (Triticum aestivum) were germinated using USA I, USA II, and BP I waters described for Example 2. Germination rate using un-supplemented (control) water was compared to that with the same water variously supplemented with a cyclodextrin component, and/or a bioactive agent, as an active component of cellular hydration. For each condition, ten seeds were placed in continuous water contact in a Petri-type dish kept at 25 C in 12 hr light/dark cycles. Photometric images were recorded on days 1 to 6 after seeding. The percentage of seeds germinated was calculated and compared as a function of time and of the applied additive concentrations.
Water samples for seed germination were used alone with no additive, or containing cyclodextrins, or containing clathrate inclusion complexes of cyclodextrin with L-arginine or with nicotinamide (both obtained from Sigma Chemical Co.; St. Louis, MO), or with L-carnitine (from Lonza AG; Switzerland). […] Additive solutions were prepared fresh on the day of germination start.
Parent cyclodextrins α-cyclodextrin (ACD), β-cyclodextrin (BCD), and γ-cyclodextrin (GCD), were obtained from Wacker Chemie (Munich, Germany). The following derivatized cyclodextrins were obtained from Cyclolab Ltd. (Budapest, Hungary): hydroxypropylated-beta-cyclodextrin (DS-3)(HPBCD), carboxymethylated-β-cyclodextrin (DS-3.5)(CMBCD), 2-hydroxy-3-N,N,N-trimethylamino)propyl-β-cyclodextrin chloride (DS-3.6)(QABCD).
Germination kinetics in control and additive-modified water under identical conditions were quantified as the percentage of the seeds having a sprout. Each determination consisted of 100 seeds for each parameter. Results are reported in Table 5, below, and in FIGS. 11-13. • A) Cyclodextrin/L-Arg Inclusion Complex Increases Seed Germination.

[6] = test system: C. elegans; experiment: C. elegans longevity in hydration modified water (Example 5); type: in vivo; conditions: for Animals alive, % of initial: 0.1% w/w in nutritive media, USA I water
Protocol: C. elegans nematodes were grown in petri-type dishes containing normal nutrient liquid media prepared alternatively with USA I water (described in Example 2) lacking any further additive component (control) or the same water supplemented with a parent α-, β-, or γ-cyclodextrin, and/or a bioactive agent, as an active component of cellular hydration. Fifty ±3 worms were transferred to each dish. Each condition was repeated in triplicate. Experiments were repeated for USA II and BP I waters described in Example 2.
• A. Addition of parent α-, β- and γ-cyclodextrins. • B. Addition of L-arginine and nicotinamide. • C. Addition of inclusion complexes of cyclodextrins with L-arginine and nicotinamide.

Q: Which Conductivity ([1]; 0.05%) does the source give for OC[C@H]1O[C@@H]2O[C@H]3[C@H](O)[C@@H](O)[C@@H](O[C@H]4[C@H](O)[C@@H](O)[C@@H](O[C@H]5[C@H](O)[C@@H](O)[C@@H](O[C@H]6[C@H](O)[C@@H](O)[C@@H](O[C@H]7[C@H](O)[C@@H](O)[C@@H](O[C@H]1[C@H](O)[C@H]2O)O[C@@H]7CO)O[C@@H]6CO)O[C@@H]5CO)O[C@@H]4CO)O[C@@H]3CO [Alpha Cyclodextrin, α-cyclodextrin] here?
A: 35.3 μS · cm^−1

Q: What about the Conductivity ([1]; 0.10%) of the same molecule?
A: 39.0 μS · cm^−1

Q: What about the “Viscosity (25 C.)” value ([2]; 0.05%) of the same molecule?
A: 0.91 cP

Q: What about the “Viscosity (25 C.)” value ([2]; 0.10%) of the same molecule?
A: 0.92 cP

Q: And the “Viscosity (25 C.)” value ([2]; 1.00%)?
A: 0.97 cP

Q: What about the “Viscosity (25 C.)” value ([2]; 2.00%) of the same molecule?
A: 1.06 cP

Q: And the “Surface Tension” value ([3]; 0.05%)?
A: 72 mN · m^−1

Q: What about the “Surface Tension” value ([3]; 0.10%) of the same molecule?
A: 72 mN · m^−1

Q: And the “Surface Tension” value ([3]; 1.00%)?
A: 72 mN · m^−1

Q: What about the “Surface Tension” value ([3]; 2.00%) of the same molecule?
A: 73 mN · m^−1

Q: And the Osmolality ([4]; 0.05%)?
A: 0 mOsm/kg

Q: And the Osmolality ([4]; 0.10%)?
A: 2 mOsm/kg

Q: And the Osmolality ([4]; 2.00%)?
A: 18 mOsm/kg

Q: What about the “wheat seed germination, percentage of the seeds having a sprout” value (from here on “wheat seed germination, percentage”) ([5]; day 0) of the same molecule?
A: 0%

Q: And the “wheat seed germination, percentage” value ([5]; day 1)?
A: 11%

Q: What about the “wheat seed germination, percentage” value ([5]; day 2) of the same molecule?
A: 18%

Q: What about the “wheat seed germination, percentage” value ([5]; day 3) of the same molecule?
A: 68%

Q: And the “wheat seed germination, percentage” value ([5]; day 4)?
A: 92%

Q: What about the “number of animals surviving to old ages” value ([6]; after day 15, 0.1% w/w) of the same molecule?
A: significantly increased

Q: What about the “Animals alive, % of initial” value ([6]; life span 10 days) of the same molecule?
A: 100 % of initial

Q: And the “Animals alive, % of initial” value ([6]; life span 15 days)?
A: 20 % of initial

Q: And the “Animals alive, % of initial” value ([6]; life span 18 days)?
A: 2 % of initial
